Experimental data as given in ChEMBL document CHEMBL1201861, “Genomics of Drug Sensitity in Cancer screening data, Wellcome Trust Sanger Institute”.

system: TK-10; experiment: cells; type: functional, cell-based, Homo sapiens; conditions: Homo sapiens, TK-10;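 also: growth inhibition of TK-10 cells, read out in a cell viability assay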
Description: SANGER: Inhibition of human TK10 cell growth in a cell viability assay.

SMILES | IC50
Cn1cnc2c(F)c(Nc3ccc(Br)cc3Cl)c(C(=O)NOCCO)cc21 [SELUMETINIB] | > 4 µM

system: KURAMOCHI; experiment: cells; type: functional, cell-based, Homo sapiens; conditions: Homo sapiens, KURAMOCHI;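 also: growth inhibition of KURAMOCHI cells, read out with a cell viability assay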
Description: SANGER: Inhibition of human KURAMOCHI cell growth in a cell viability assay.

SMILES | IC50
Cn1cnc2c(F)c(Nc3ccc(Br)cc3Cl)c(C(=O)NOCCO)cc21 [SELUMETINIB] | > 4 µM

system: no-10; experiment: cells; type: functional, cell-based, Homo sapiens; conditions: Homo sapiens;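 also: growth inhibition of no-10 cells, read out with a cell viability assay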
Description: SANGER: Inhibition of human no-10 cell growth in a cell viability assay.

SMILES | IC50
Cn1cnc2c(F)c(Nc3ccc(Br)cc3Cl)c(C(=O)NOCCO)cc21 [SELUMETINIB] | > 4 µM

system: MEG-01; experiment: cells; type: functional, cell-based, Homo sapiens; conditions: Homo sapiens, MEG-01;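 also: growth inhibition of MEG-01 cells, read out by a cell viability assay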
Description: SANGER: Inhibition of human MEG-01 cell growth in a cell viability assay.

SMILES | IC50
Cn1cnc2c(F)c(Nc3ccc(Br)cc3Cl)c(C(=O)NOCCO)cc21 [SELUMETINIB] | 1.63 µM

system: NCI-H1770; experiment: cells; type: functional, cell-based, Homo sapiens; conditions: Homo sapiens, NCI-H1770;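 also: growth inhibition of NCI-H1770 cells determined with a viability readout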
Description: SANGER: Inhibition of human NCI-H1770 cell growth in a cell viability assay.

SMILES | IC50
Cn1cnc2c(F)c(Nc3ccc(Br)cc3Cl)c(C(=O)NOCCO)cc21 [SELUMETINIB] | > 4 µM

system: NCI-H23; experiment: cells; type: functional, cell-based, Homo sapiens; conditions: Homo sapiens, NCI-H23;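 also: cell viability assay measuring growth inhibition of NCI-H23 cells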
Description: SANGER: Inhibition of human NCI-H23 cell growth in a cell viability assay.

SMILES | IC50
Cn1cnc2c(F)c(Nc3ccc(Br)cc3Cl)c(C(=O)NOCCO)cc21 [SELUMETINIB] | > 4 µM

system: KE-37; experiment: cells; type: functional, cell-based, Homo sapiens; conditions: Homo sapiens, KE-37;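 also: growth inhibition of KE-37 cells, read out with a cell viability assay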
Description: SANGER: Inhibition of human KE-37 cell growth in a cell viability assay.

SMILES | IC50
Cn1cnc2c(F)c(Nc3ccc(Br)cc3Cl)c(C(=O)NOCCO)cc21 [SELUMETINIB] | > 4 µM

system: NCI-H209; experiment: cells; type: functional, cell-based, Homo sapiens; conditions: Homo sapiens, NCI-H209;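 also: growth inhibition of human NCI-H209 cells, measured by a cell viability assay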
Description: SANGER: Inhibition of human NCI-H209 cell growth in a cell viability assay.

SMILES | IC50
Cn1cnc2c(F)c(Nc3ccc(Br)cc3Cl)c(C(=O)NOCCO)cc21 [SELUMETINIB] | > 4 µM

system: SW 954; experiment: cells; type: functional, cell-based, Homo sapiens; conditions: Homo sapiens, SW 954;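 also: growth inhibition of SW954 human cancer cells, read out as cell viability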
Description: SANGER: Inhibition of human SW954 cell growth in a cell viability assay.

SMILES | IC50
Cn1cnc2c(F)c(Nc3ccc(Br)cc3Cl)c(C(=O)NOCCO)cc21 [SELUMETINIB] | 0.896 µM

system: KS-1; experiment: cells; type: functional, cell-based, Homo sapiens; conditions: Homo sapiens, KS-1;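 also: growth inhibition of KS-1 cells, read out with a cell viability assay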
Description: SANGER: Inhibition of human KS-1 cell growth in a cell viability assay.

SMILES | IC50
Cn1cnc2c(F)c(Nc3ccc(Br)cc3Cl)c(C(=O)NOCCO)cc21 [SELUMETINIB] | > 4 µM

system: ES8; experiment: cells; type: functional, cell-based, Homo sapiens; conditions: Homo sapiens, ES8;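 also: growth inhibition of human ES8 cells, read out with a cell viability assay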
Description: SANGER: Inhibition of human ES8 cell growth in a cell viability assay.

SMILES | IC50
Cn1cnc2c(F)c(Nc3ccc(Br)cc3Cl)c(C(=O)NOCCO)cc21 [SELUMETINIB] | > 4 µM

system: LU-134-A; experiment: cells; type: functional, cell-based, Homo sapiens; conditions: Homo sapiens, LU-134-A
Description: SANGER: Inhibition of human LU-134-A cell growth in a cell viability assay.

SMILES | IC50
Cn1cnc2c(F)c(Nc3ccc(Br)cc3Cl)c(C(=O)NOCCO)cc21 [SELUMETINIB] | > 4 µM

system: HD-MY-Z; experiment: cells; type: functional, cell-based, Homo sapiens; conditions: Homo sapiens, HD-MY-Z;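 also: growth inhibition of HD-MY-Z cells, read out with a cell viability assay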
Description: SANGER: Inhibition of human HD-MY-Z cell growth in a cell viability assay.

SMILES | IC50
Cn1cnc2c(F)c(Nc3ccc(Br)cc3Cl)c(C(=O)NOCCO)cc21 [SELUMETINIB] | > 4 µM

system: IST-MES1; experiment: cells; type: functional, cell-based, Homo sapiens; conditions: Homo sapiens, IST-MES1;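 also: growth inhibition of IST-MES1 cells, measured with a cell viability assay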
Description: SANGER: Inhibition of human IST-MES1 cell growth in a cell viability assay.

SMILES | IC50
Cn1cnc2c(F)c(Nc3ccc(Br)cc3Cl)c(C(=O)NOCCO)cc21 [SELUMETINIB] | > 4 µM

system: HL-60; experiment: cells; type: functional, cell-based, Homo sapiens; conditions: Homo sapiens, HL-60;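 also: growth inhibition of human HL-60 cells, read out with a cell viability assay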
Description: SANGER: Inhibition of human HL-60 cell growth in a cell viability assay.

SMILES | IC50
Cn1cnc2c(F)c(Nc3ccc(Br)cc3Cl)c(C(=O)NOCCO)cc21 [SELUMETINIB] | 0.0246 µM

system: MC116; experiment: cells; type: functional, cell-based, Homo sapiens; conditions: Homo sapiens, MC116;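 also: growth inhibition of MC116 cells, read out with a cell viability assay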
Description: SANGER: Inhibition of human MC116 cell growth in a cell viability assay.

SMILES | IC50
Cn1cnc2c(F)c(Nc3ccc(Br)cc3Cl)c(C(=O)NOCCO)cc21 [SELUMETINIB] | > 4 µM

system: LU-139; experiment: cells; type: functional, cell-based, Homo sapiens; conditions: Homo sapiens, LU-139
Description: SANGER: Inhibition of human LU-139 cell growth in a cell viability assay.

SMILES | IC50
Cn1cnc2c(F)c(Nc3ccc(Br)cc3Cl)c(C(=O)NOCCO)cc21 [SELUMETINIB] | > 4 µM

system: HCC1187; experiment: cells; type: functional, cell-based, Homo sapiens; conditions: Homo sapiens, HCC1187;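 also: growth inhibition of HCC1187 cells, read out with a cell viability assay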
Description: SANGER: Inhibition of human HCC1187 cell growth in a cell viability assay.

SMILES | IC50
Cn1cnc2c(F)c(Nc3ccc(Br)cc3Cl)c(C(=O)NOCCO)cc21 [SELUMETINIB] | > 4 µM

system: COR-L88; experiment: cells; type: functional, cell-based, Homo sapiens; conditions: Homo sapiens, COR-L88;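 also: growth inhibition of COR-L88 cells, read out with a cell viability assay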
Description: SANGER: Inhibition of human COR-L88 cell growth in a cell viability assay.

SMILES | IC50
Cn1cnc2c(F)c(Nc3ccc(Br)cc3Cl)c(C(=O)NOCCO)cc21 [SELUMETINIB] | > 4 µM

system: NOS-1; experiment: cells; type: functional, cell-based, Homo sapiens; conditions: Homo sapiens, NOS-1;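 also: growth inhibition of the human NOS-1 cell line, read out with a cell viability assay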
Description: SANGER: Inhibition of human NOS-1 cell growth in a cell viability assay.

SMILES | IC50
Cn1cnc2c(F)c(Nc3ccc(Br)cc3Cl)c(C(=O)NOCCO)cc21 [SELUMETINIB] | > 4 µM

system: ES5; experiment: cells; type: functional, cell-based, Homo sapiens; conditions: Homo sapiens, ES5;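 also: growth inhibition of human ES5 cells, read out by a cell viability assay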
Description: SANGER: Inhibition of human ES5 cell growth in a cell viability assay.

SMILES | IC50
Cn1cnc2c(F)c(Nc3ccc(Br)cc3Cl)c(C(=O)NOCCO)cc21 [SELUMETINIB] | > 4 µM

system: HCE-4; experiment: cells; type: functional, cell-based, Homo sapiens; conditions: Homo sapiens, HCE-4;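 also: cell viability assay measuring inhibition of growth in the human HCE-4 cell line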
Description: SANGER: Inhibition of human HCE-4 cell growth in a cell viability assay.

SMILES | IC50
Cn1cnc2c(F)c(Nc3ccc(Br)cc3Cl)c(C(=O)NOCCO)cc21 [SELUMETINIB] | > 4 µM

system: GI-1; experiment: cells; type: functional, cell-based, Homo sapiens; conditions: Homo sapiens, GI-1;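 also: growth inhibition of human GI-1 cells, measured with a cell viability readout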
Description: SANGER: Inhibition of human GI-1 cell growth in a cell viability assay.

SMILES | IC50
Cn1cnc2c(F)c(Nc3ccc(Br)cc3Cl)c(C(=O)NOCCO)cc21 [SELUMETINIB] | > 4 µM

system: SF-539; experiment: cells; type: functional, cell-based, Homo sapiens; conditions: Homo sapiens, SF-539;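 also: Read-out is a cell viability assay, with IC50 reflecting inhibition of cell growth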
Description: SANGER: Inhibition of human SF539 cell growth in a cell viability assay.

SMILES | IC50
Cn1cnc2c(F)c(Nc3ccc(Br)cc3Cl)c(C(=O)NOCCO)cc21 [SELUMETINIB] | > 4 µM

system: DJM-1; experiment: cells; type: functional, cell-based, Homo sapiens; conditions: Homo sapiens, DJM-1;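 also: growth inhibition of human DJM-1 cells, read out by a cell viability assay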
Description: SANGER: Inhibition of human DJM-1 cell growth in a cell viability assay.

SMILES | IC50
Cn1cnc2c(F)c(Nc3ccc(Br)cc3Cl)c(C(=O)NOCCO)cc21 [SELUMETINIB] | > 4 µM

system: K562; experiment: cells; type: functional, cell-based, Homo sapiens; conditions: Homo sapiens, K562
Description: SANGER: Inhibition of human K-562 cell growth in a cell viability assay.

SMILES | IC50
Cn1cnc2c(F)c(Nc3ccc(Br)cc3Cl)c(C(=O)NOCCO)cc21 [SELUMETINIB] | > 4 µM

system: KG-1; experiment: cells; type: functional, cell-based, Homo sapiens; conditions: Homo sapiens, KG-1;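 also: growth inhibition of KG-1 cells, read out by a cell viability assay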
Description: SANGER: Inhibition of human KG-1 cell growth in a cell viability assay.

SMILES | IC50
Cn1cnc2c(F)c(Nc3ccc(Br)cc3Cl)c(C(=O)NOCCO)cc21 [SELUMETINIB] | 0.895 µM

system: RKO; experiment: cells; type: functional, cell-based, Homo sapiens; conditions: Homo sapiens, RKO;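 also: growth inhibition of human RKO cells, read out with a cell viability assay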
Description: SANGER: Inhibition of human RKO cell growth in a cell viability assay.

SMILES | IC50
Cn1cnc2c(F)c(Nc3ccc(Br)cc3Cl)c(C(=O)NOCCO)cc21 [SELUMETINIB] | 0.248 µM

system: NTERA-2-cl-D1; experiment: cells; type: functional, cell-based, Homo sapiens; conditions: Homo sapiens, NTERA-2-cl-D1;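 also: inhibition of cell growth, measured with a cell viability assay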
Description: SANGER: Inhibition of human NTERA-S-cl-D1 cell growth in a cell viability assay.

SMILES | IC50
Cn1cnc2c(F)c(Nc3ccc(Br)cc3Cl)c(C(=O)NOCCO)cc21 [SELUMETINIB] | > 4 µM

system: NCI-H1155; experiment: cells; type: functional, cell-based, Homo sapiens; conditions: Homo sapiens, NCI-H1155;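 also: cell growth inhibition measured by a viability assay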
Description: SANGER: Inhibition of human NCI-H1155 cell growth in a cell viability assay.

SMILES | IC50
Cn1cnc2c(F)c(Nc3ccc(Br)cc3Cl)c(C(=O)NOCCO)cc21 [SELUMETINIB] | > 4 µM

system: OS-RC-2; experiment: cells; type: functional, cell-based, Homo sapiens; conditions: Homo sapiens, OS-RC-2;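 also: growth inhibition of human OS-RC-2 cells, measured by a cell viability assay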
Description: SANGER: Inhibition of human OS-RC-2 cell growth in a cell viability assay.

SMILES | IC50
Cn1cnc2c(F)c(Nc3ccc(Br)cc3Cl)c(C(=O)NOCCO)cc21 [SELUMETINIB] | 2.4 µM

system: EW-16; experiment: cells; type: functional, cell-based, Homo sapiens; conditions: Homo sapiens, EW-16;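 also: growth inhibition of human EW-16 cells, read out as cell viability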
Description: SANGER: Inhibition of human EW-16 cell growth in a cell viability assay.

SMILES | IC50
Cn1cnc2c(F)c(Nc3ccc(Br)cc3Cl)c(C(=O)NOCCO)cc21 [SELUMETINIB] | > 4 µM

system: RCC10RGB; experiment: cells; type: functional, cell-based, Homo sapiens; conditions: Homo sapiens, RCC10RGB;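 also: growth inhibition of human RCC10RGB cells, read out by a cell viability assay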
Description: SANGER: Inhibition of human RCC10RGB cell growth in a cell viability assay.

SMILES | IC50
Cn1cnc2c(F)c(Nc3ccc(Br)cc3Cl)c(C(=O)NOCCO)cc21 [SELUMETINIB] | > 4 µM

system: EKVX; experiment: cells; type: functional, cell-based, Homo sapiens; conditions: Homo sapiens, EKVX;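 also: growth inhibition of human EKVX cells, read out with a cell viability assay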
Description: SANGER: Inhibition of human EKVX cell growth in a cell viability assay.

SMILES | IC50
Cn1cnc2c(F)c(Nc3ccc(Br)cc3Cl)c(C(=O)NOCCO)cc21 [SELUMETINIB] | > 4 µM

system: CW-2; experiment: cells; type: functional, cell-based, Homo sapiens; conditions: Homo sapiens, CW-2;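 also: growth inhibition of CW-2 cells, read out by a cell viability assay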
Description: SANGER: Inhibition of human CW-2 cell growth in a cell viability assay.

SMILES | IC50
Cn1cnc2c(F)c(Nc3ccc(Br)cc3Cl)c(C(=O)NOCCO)cc21 [SELUMETINIB] | > 4 µM

system: A388; experiment: cells; type: functional, cell-based, Homo sapiens; conditions: Homo sapiens, A388;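 also: growth inhibition of human A388 cells, read out with a cell viability assay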
Description: SANGER: Inhibition of human A388 cell growth in a cell viability assay.

SMILES | IC50
Cn1cnc2c(F)c(Nc3ccc(Br)cc3Cl)c(C(=O)NOCCO)cc21 [SELUMETINIB] | > 4 µM

system: MLMA; experiment: cells; type: functional, cell-based, Homo sapiens; conditions: Homo sapiens, MLMA;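 also: growth inhibition of MLMA cells (human), determined through a cell viability readout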
Description: SANGER: Inhibition of human MLMA cell growth in a cell viability assay.

SMILES | IC50
Cn1cnc2c(F)c(Nc3ccc(Br)cc3Cl)c(C(=O)NOCCO)cc21 [SELUMETINIB] | > 4 µM

system: KINGS-1; experiment: cells; type: functional, cell-based, Homo sapiens; conditions: Homo sapiens, KINGS-1;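 also: cell viability assay measuring suppression of KINGS-1 cell growth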
Description: SANGER: Inhibition of human KINGS-1 cell growth in a cell viability assay.

SMILES | IC50
Cn1cnc2c(F)c(Nc3ccc(Br)cc3Cl)c(C(=O)NOCCO)cc21 [SELUMETINIB] | > 4 µM

system: KM-H2; experiment: cells; type: functional, cell-based, Homo sapiens; conditions: Homo sapiens, KM-H2;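 also: growth inhibition of KM-H2 cells, read out by a cell viability assay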
Description: SANGER: Inhibition of human KM-H2 cell growth in a cell viability assay.

SMILES | IC50
Cn1cnc2c(F)c(Nc3ccc(Br)cc3Cl)c(C(=O)NOCCO)cc21 [SELUMETINIB] | > 4 µM

system: LB2241-RCC; experiment: cells; type: functional, cell-based, Homo sapiens; conditions: Homo sapiens, LB2241-RCC;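 also: cell viability assay measuring how strongly the cultured human renal carcinoma line is prevented from growing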
Description: SANGER: Inhibition of human LB2241-RCC cell growth in a cell viability assay.

SMILES | IC50
Cn1cnc2c(F)c(Nc3ccc(Br)cc3Cl)c(C(=O)NOCCO)cc21 [SELUMETINIB] | 0.79 µM

system: Mo; experiment: cells; type: functional, cell-based, Homo sapiens; conditions: Homo sapiens, Mo
Description: SANGER: Inhibition of human Mo-T cell growth in a cell viability assay.

SMILES | IC50
Cn1cnc2c(F)c(Nc3ccc(Br)cc3Cl)c(C(=O)NOCCO)cc21 [SELUMETINIB] | > 4 µM

system: PSN1; experiment: cells; type: functional, cell-based, Homo sapiens; conditions: Homo sapiens, PSN1;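 also: suppression of growth of human PSN1 cells, read out by a cell viability assay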
Description: SANGER: Inhibition of human PSN1 cell growth in a cell viability assay.

SMILES | IC50
Cn1cnc2c(F)c(Nc3ccc(Br)cc3Cl)c(C(=O)NOCCO)cc21 [SELUMETINIB] | 0.366 µM

system: A4-Fuk; experiment: cells; type: functional, cell-based, Homo sapiens; conditions: Homo sapiens, A4-Fuk;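 also: growth inhibition of A4-Fuk cells, read out by a cell viability assay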
Description: SANGER: Inhibition of human A4-Fuk cell growth in a cell viability assay.

SMILES | IC50
Cn1cnc2c(F)c(Nc3ccc(Br)cc3Cl)c(C(=O)NOCCO)cc21 [SELUMETINIB] | > 4 µM

system: SHP77; experiment: cells; type: functional, cell-based, Homo sapiens, SHP-77; conditions: Homo sapiens, SHP77;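 also: growth inhibition of human SHP-77 cells measured by a cell viability assay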
Description: SANGER: Inhibition of human SHP-77 cell growth in a cell viability assay.

SMILES | IC50
Cn1cnc2c(F)c(Nc3ccc(Br)cc3Cl)c(C(=O)NOCCO)cc21 [SELUMETINIB] | > 4 µM

system: COLO-320-HSR; experiment: cells; type: functional, cell-based, Homo sapiens; conditions: Homo sapiens, COLO-320-HSR;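 also: growth inhibition of COLO-320-HSR cells, determined with a cell viability assay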
Description: SANGER: Inhibition of human COLO-320-HSR cell growth in a cell viability assay.

SMILES | IC50
Cn1cnc2c(F)c(Nc3ccc(Br)cc3Cl)c(C(=O)NOCCO)cc21 [SELUMETINIB] | > 4 µM

system: MOLT-4; experiment: cells; type: functional, cell-based, Homo sapiens; conditions: Homo sapiens, MOLT-4;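 also: growth inhibition of MOLT-4 cells, determined with a cell viability readout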
Description: SANGER: Inhibition of human MOLT-4 cell growth in a cell viability assay.

SMILES | IC50
Cn1cnc2c(F)c(Nc3ccc(Br)cc3Cl)c(C(=O)NOCCO)cc21 [SELUMETINIB] | > 4 µM
